Test results reported in PMC11843613, “Further Optimization of the mGlu1 PAM VU6024578/BI02982816: Discovery and Characterization of VU6033685” (ACS Chemical Neuroscience, 2025).

What was measured:
CYP450 1A2 = target: T1, CYP450 1A2 (Homo sapiens, UniProt P05177); assay: Inhibition of cytochrome P450 enzymes in human liver microsomes, 1A2; type: in vitro ADME
T1 construct: 0.1 mg/mL human liver microsomes (HLM); from tissue; host or cells: human liver microsomes
T1 sequence (P05177 1-516): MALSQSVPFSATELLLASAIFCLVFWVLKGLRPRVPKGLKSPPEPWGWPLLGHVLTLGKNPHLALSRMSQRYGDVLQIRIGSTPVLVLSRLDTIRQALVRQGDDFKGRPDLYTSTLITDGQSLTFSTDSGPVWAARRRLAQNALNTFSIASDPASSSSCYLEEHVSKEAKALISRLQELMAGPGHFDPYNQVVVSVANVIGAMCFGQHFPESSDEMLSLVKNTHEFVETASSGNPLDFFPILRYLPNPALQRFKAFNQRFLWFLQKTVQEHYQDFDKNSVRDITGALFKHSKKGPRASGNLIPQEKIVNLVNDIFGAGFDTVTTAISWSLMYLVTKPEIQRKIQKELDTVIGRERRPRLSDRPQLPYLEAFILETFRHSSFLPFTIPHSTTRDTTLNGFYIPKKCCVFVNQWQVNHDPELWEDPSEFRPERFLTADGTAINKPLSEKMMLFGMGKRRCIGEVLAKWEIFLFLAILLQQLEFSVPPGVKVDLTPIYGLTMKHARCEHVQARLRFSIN
Experimental: Inhibition of Cytochrome P450 Enzymes: A cocktail of substrates for cytochrome P450 enzymes (1A2: Phenacetin, 10 µM; 2C9: Diclofenac, 5 µM; 2D6: Dextromethorphan, 5 µM; 3A4:
Midazolam, 2 µM) were mixed for cocktail analysis. For P450 2C19, the substrate stock (Mephenytoin, 40 µM )and substrate mix were prepared separately for discrete analysis. The […]
positive control for pan-P450 inhibition (miconazole) was included alongside each test compound […]
A reaction mixture of 100 mM Kpi, pH 7.4, 0.1 mg/mL human liver microsomes (HLM) and Substrate Mix is prepared and aliquoted into a 96-deepwell block. Test compound and positive control (in duplicate) were then added such that the final concentration of test compound ranged from 0.1 – 30 µM. The plate was vortexed briefly and then pre-incubated at 37 °C while shaking for 15 minutes. The reaction was initiated with the addition of NADPH (1 mM final concentration). The incubation continued for 8 min and the reaction quenched by 2x volume of cold acetonitrile containing internal standard (50 nM carbamazepine). The plate was centrifuged for 10 minutes (4000 rcf, 4°C) and the resulting supernatant diluted 1:1 with water for LC/MS/MS analysis. A 12 point standard curve of substrate metabolites over the range of 0.98 nM to 2000 […]
Samples were analyzed via electrospray ionization (ESI) on an AB Sciex API-4000 (Foster City, CA) triple-quadrupole instrument that was coupled with Shimadzu LC-10AD pumps (Columbia, MD) and a Leap Technologies CTC PAL auto-sampler (Carrboro, NC). Analytes were separated by gradient elution using a Fortis C18 3.0 x 50 mm, 3 µm column (Fortis Technologies Ltd, Cheshire, UK) thermostated at 40°C. HPLC mobile phase A was 0.1% formic acid in water (pH unadjusted), mobile phase B was 0.1% formic acid in acetonitrile (pH unadjusted). The gradient […]
(§1) 90% B for 0.1 min and returned to 10% B in 0.1 min followed by a re-equilibration (0.9 min). The total run time was 2.5 min and the HPLC flow rate was 0.5 mL/min. The source temperature was set at 500°C and mass spectral analyses were performed using multiple reaction monitoring (MRM), with transitions specific for each compound utilizing a Turbo-Ionspray® source in positive ionization mode (5.0 kV spray voltage).
The IC50 values for each compound were obtained for the individual CYP enzymes by quantitating the inhibition of metabolite formation for each probe substrate. A 0 µM compound condition (or control) was set to 100% enzymatic activity and the effect of increasing test compound concentrations on enzymatic activity could then be calculated from the % of control activity.
Curves were fitted using XLfit 5.2.2 (four-parameter logistic model, equation 201) to determine the concentration that produces half-maximal inhibition (IC50).

[1] = Rat CNS penetration (brain:plasma); type: in vivo; details: male, Sprague-Dawley, intraperitoneal, 10 mg/kg; for Kp at 0.25 h: brain and plasma, rat brain:plasma; for Kp uu at 0.25 h: rat, brain/plasma
Experimental: In vivo DMPK experimental
Compounds were formulated as 10% tween 80 micro suspensions in sterile water at the concentration of 1 mg/ml and administered intraperitoneally to male Sprague- Dawley rats weighing 225 to 250 g (Harlan, Inc., Indianapolis, IN) at the dose of 10 mg/kg. The rat blood and brain were collected at 0.25 hr. Animals were euthanized and decapitated, and the brains were removed, thoroughly washed in cold phosphate buffered saline and immediately frozen on dry ice.
Trunk blood was collected in EDTA Vacutainer tubes, and plasma was separated by centrifugation and stored at -80°C until analysis. Plasma was separated by centrifugation (4000 rcf, 4°C) and stored at […] until analysis. On the day of analysis, frozen whole-rat brains were weighed and diluted with 1:3 (w/w) parts of 70:30 isopropanol:water. The mixture was then subjected to mechanical homogenation employing a Mini-Beadbeater™ and 1.0 mm Zirconia/Silica Beads (BioSpec Products) followed by centrifugation. The sample extraction of plasma (20 μL) or brain homogenate (20 μL) was performed by a method based on protein precipitation using three volumes of ice-cold acetonitrile containing an internal standard (50 ng/mL carbamazepine). The samples were centrifuged (3000 rcf, 5 min) and supernatants transferred and diluted 1:1 (supernatant: water) into a new 96 well plate, which was then sealed in preparation for LC/MS/MS […]
In vivo samples were analyzed via electrospray ionization (ESI) on an AB Sciex API-5500 QTrap (Foster City, CA) instrument that was coupled with Shimadzu LC-20AD pumps (Columbia, MD) and a Leap Technologies CTC PAL auto-sampler (Carrboro, NC). Analytes were separated by gradient elution using a Fortis C18 3.0 x 50 mm, 3 µm column (Fortis Technologies Ltd, Cheshire, UK) thermostated at 40°C. HPLC mobile phase A was 0.1% formic acid in water (pH unadjusted), mobile phase B was 0.1% formic acid in acetonitrile (pH unadjusted). The gradient started at 30% […]
as §1, with “min” for “90% B for 0.1 min”, “30%” for “10%”, “mode (5.0 kV spray voltage).” left out
mode (5.0 kV spray voltage). The calibration curves were constructed in blank plasma. All data were analyzed using AB Sciex Analyst software v1.5.1.
All animal study procedures were approved by the Institutional Animal Care and Use Committee and were conducted in accordance with the National Institutes of Health regulations of animal care covered in Principles of Laboratory Animal Care (National Institutes of Health). […]
GraphPad Prism (version 4.03, GraphPad, La Jolla, CA). […]

| Structure (SMILES) | IC50 (CYP450 1A2) [µM] | Kp at 0.25 h [1] | Kp uu at 0.25 h [1] |
| --- | --- | --- | --- |
| Cn1cc(-c2cc(CNC(=O)c3cc(-c4ccco4)ccc3Cl)n(C)n2)cn1 [compound 4] | 14.7 | 0.89 | 0.98 |
| Cc1nc2c(F)cccc2cc1CNC(=O)c1cc(-n2cccn2)ccc1Cl [compound 7] | 11.2 | 0.98 | – |
| Cc1nc(C2CC2)ccc1CNC(=O)c1cc(-n2cccn2)ccc1Cl [compound 8] | 26 | 1.8 | 1.2 |

Continued, values first:

| IC50 (CYP450 1A2) [µM] | Kp at 0.25 h [1] | Kp uu at 0.25 h [1] | Structure (SMILES) |
| --- | --- | --- | --- |
| > 30 | 0.3 | 0.52 | Cn1nc(-c2ccnn2C)cc1CNC(=O)c1cc(-n2cccn2)ccc1Cl [compound 5] |
| 15.9 | – | – | Cc1nc2ccccc2cc1CNC(=O)c1cc(-n2cccn2)ccc1Cl [compound 6] |
